From patent US10562848B2, “Inhibitors of TNF superfamily costimulatory interactions and methods for uses of the same” (UNIVERSITY OF MIAMI, priority 2015, dated 2020)
Like-named read-outs stand apart in the source and are kept apart here.

Tests used:
[1] = system: CD40L-induced MHC-II expression in human THP-1 cells; assay: cells; conditions: for IC50: Homo sapiens, THP-1, 48 h, read-out: IC50, inhibition of CD40L-induced THP-1 activation
Experimental: As a further assessment, the ability of the compounds of the disclosure to inhibit the CD40L-induced activation of THP-1 cells, which can serve as surrogate dendritic cells, was evaluated using an assay as described previously (see Margolles-Clark et al, J Mol Med 87:1133-1143 (2009)).
THP-1 human myeloid cells obtained from American Type Culture Collection (ATCC; Manasses, Va.) were cultivated in RPMI media 1640 supplemented with 10% FBS, 100 U/mL penicillin, and streptomycin 100 μg/mL to a density of 1×10^6 cells/mL. Cells were centrifuged and cultured in the same medium without FBS for a period of 24 hours. Starved cells were placed in fresh medium without FBS and stimulated with 0.5 μg/mL of rhCD154 (MegaCD40L; Enzo Life Sciences), in the presence of various concentrations of test compounds. After 48 h, cells were labeled with biotin conjugated monoclonal anti-human CD40 antibody (clone LOB7/6) (LifeSpan BioSciences, Seattle, Wash.), detected with allophycocyanin-eFluor™ 780 streptavidin (eBioscience, San Diego, Calif.), and labeled with monoclonal anti-human HLA-DR antibody APC-Alexa Fluor® 750 (clone LN3) (eBioscience, San Diego, Calif.). All cultivations were carried out for 48 h at 37° C., 90% humidity, and 5% CO2. Stained THP-1 cells were analyzed using a BD LSR II Flow Cytometer (BD Biosciences, San Jose, Calif.). Cell surface markers were quantified in live cells only after gating out 4′,6-diamidino-2-phenylindole (DAPI) labeled cells. All experiments were repeated at least three times.
Data are average±SD in live (DAPI^−) cells from five independent experiments and were analyzed by […] one-way ANOVA followed by Dunnett's multiple comparison test, *p<0.05, **p<0.01, ****p<0.0001 vs. cells+huCD40L.

[2] = target: T1, human CD40-CD40L (Homo sapiens, UniProt P29965); assay: Cell-free ELISA-type CD40-CD40L binding inhibition assay
T1 construct: purchased Enzo Life Sciences (San Diego, Calif.)
T1 sequence (P29965 116-261 limits assumed): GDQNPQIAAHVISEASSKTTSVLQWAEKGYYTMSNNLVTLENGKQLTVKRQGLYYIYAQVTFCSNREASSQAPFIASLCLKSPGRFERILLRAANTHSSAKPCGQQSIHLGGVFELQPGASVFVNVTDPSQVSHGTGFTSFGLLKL
Experimental: Compounds according to the disclosure were assessed for their ability to inhibit the binding of tagged ligands to plate-bound receptors using ELISA-type 96-well plate-based cell-free assays as described in the literature (see Margolles-Clark et al, J Mol Med 87:1133-1143 (2009); Margolles-Clark et al., Chem Biol Drug Des 76:305-313 (2010); Song et al., Br J Pharmacol 171:4955-4969 (2014); and Ganesan et al., Biochem Pharmacol 81:810-818 (2011)).
Recombinant receptors (hCD40:Fc, TNF-R1:Fc) and tagged ligands (hCD154, MegaCD40L, and TNF-α), were obtained from Enzo Life Sciences (San Diego, Calif.). Microtiter plates (Nunc F Maxisorp; 96-well) were coated overnight at 4° C. with 100 μL/well of Fc chimeric receptors diluted in PBS 7.2. This was followed by blocking with 200 μL/well of blocking solution (PBS 7.2, 0.05% Tween-20, 1% BSA) for 1 hour at room temperature. […] Either anti-FLAG-HRP or streptavidin-HRP conjugate was used to detect the bound FLAG-tagged or biotinylated ligand, respectively. Plates were washed three times before the addition of 120 μL/well of HRP substrate TMB (3, 3′, 5, 5′-tetramethylbenzidine) and kept in the dark for 15-30 min. The reaction was stopped using 30 μL 1M H2SO4, and the absorbance was read at 450 nm. Stock solutions of compounds at 10 mM in DMSO were used.
(§1) Typical concentrations used were as follows—receptors: 0.3 μg/mL for CD40, TNF-R1, and RANK; 0.6 μg/mL for BAFF-R, OX40, and 4-1BB; and 2 μg/mL for EGF-R-ligands: 0.02 μg/mL for CD40L, TNFα, and RANKL; 0.2 μg/ml for BAFF, OX40L, 4-1BBL; and 0.3 μg/mL for EGF. Assays were done in duplicate or triplicate per plate and repeated at least three times; the averaged data were normalized and used for data fitting and analysis. Binding data were fitted using the standard log inhibitor versus response model in GraphPad Prism to determine the corresponding IC50 values.

[3] = system: CD40L-induced proliferation of human CD19+ B cells; assay: Inhibition of CD40L-induced human CD19+ B-cell proliferation (BrdU); type: cell-based; conditions: for IC50: B-cell
Experimental: Because CD40 stimulation is an important signal for B cell proliferation, soluble CD40L can concentration-dependently induce the proliferation of human B cells.
Inhibition of cell proliferation was determined in freshly isolated human CD19^+ B cells using the colorimetric cell proliferation ELISA BrdU kit from Roche Applied Science (Indianapolis, Ind.). B cells were isolated from the PBMC as follows. Briefly, cells were washed three times with medium (RPMI 1640) and incubated for 20 min at 4° C. with 20 μL/10^7 cells of anti-CD19 Microbeads (Miltenyi Biotech, Bergisch Gladbach, Germany), according to the MiniMacs protocol (Miltenyi Biotech). Cells were then purified using magnetic columns. […] Cells were cultured in 96 wells plates (100 μL/well) at a cell density of 2×10^5 cells/mL in IMDM medium supplemented with 5% FBS, 100 U/mL penicillin, streptomycin 100 μg/mL, insulin-transferrin-selenium-G (all materials from Invitrogen, San Diego, Calif.) and 10 […] (R&D Systems). […] After 48 h, BrdU labeling solution was added as recommended, and cells were cultivated for another 48 h. Detection of incorporated BrdU was carried out following the instructions of the ELISA BrdU kit.
Data are average±SD for n=3 independent experiments with triplicates for each condition using a standard BrdU assay (Roche).

[4] = target: T2, OX40-OX40L (Homo sapiens, UniProt P23510+P43489); assay: Cell-free ELISA-type OX40 binding inhibition assay; conditions: Table 2
T2 sequence (P43489 29-214 limits assumed): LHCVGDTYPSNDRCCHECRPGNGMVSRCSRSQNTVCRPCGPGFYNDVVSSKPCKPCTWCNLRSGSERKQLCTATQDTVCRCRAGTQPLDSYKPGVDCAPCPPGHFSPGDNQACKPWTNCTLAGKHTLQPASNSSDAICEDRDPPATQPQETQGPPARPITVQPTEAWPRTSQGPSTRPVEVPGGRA
T2 sequence (P23510 51-183 limits assumed): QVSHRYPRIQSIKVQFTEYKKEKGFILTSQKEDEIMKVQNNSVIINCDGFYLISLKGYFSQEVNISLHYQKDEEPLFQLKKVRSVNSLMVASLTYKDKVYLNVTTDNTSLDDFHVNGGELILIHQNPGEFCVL
Experimental: as §1

[5] = IC50, inhibition of the CD40-CD40L interaction, cell-free binding, n=3 independent experiments

Row | SMILES | IC50 [1] | inhibition of CD40L-induced MHC-II expression in THP-1 cells (in words) [1] | IC50 [2, 5] | IC50 ([2]; IC50 CD40, Table 2) | inhibition of human CD40-CD40L binding (in words) ([2]; cell-free binding) | inhibition of CD40L-induced human CD19+ B-cell proliferation (in words) [3] | IC50 [4] | IC50 ([2]; Table 2, read-out: IC50 CD40) | IC50 ([2]; cell-free binding, n=3 independent experiments, read-out: IC50, inhibition of the CD40-CD40L interaction) | IC50 [3]
1 | O=C(Nc1ccc(-c2ccc(C(=O)Nc3cccc4cccc(S(=O)(=O)O)c34)cc2)cc1)c1ccc([N+](=O)[O-])cc1 [Compound 21041, 8-[(4′-[4-nitrobenzamido]biphenyl-4-yl-carbonyl)amino]naphthalene-1-sulfonic acid] | ~10000 nM | concentration-dependent inhibition | 310 nM | 300 nM | concentration-dependent inhibition | concentration-dependent inhibition | 605000 nM | – | – | –
2 | COC(=O)c1ccc(C(=O)Nc2ccc(-c3ccc(C(=O)Nc4cccc5cccc(S(=O)(=O)O)c45)cc3)cc2)cc1 [Compound 21045] | – | concentration-dependent inhibition | – | – | concentration-dependent inhibition | concentration-dependent inhibition | 135000 nM | 100 nM | 140 nM | ~20000 nM
3 | O=C(Nc1ccc(-c2ccc(C(=O)Nc3ccc(C(=O)O)c4ccccc34)cc2)cc1)c1ccc([N+](=O)[O-])cc1 [Compound 25441] | ~10000 nM | concentration-dependent inhibition | 360 nM | – | concentration-dependent inhibition | concentration-dependent inhibition | 2700 nM | 400 nM | – | ~20000 nM
